Experiment [1] has as its system PC-12. The experiment is described as follows: Inhibition of D-aspartate biosynthesis in rat PC12 cells assessed as reduction of total D-aspartate level up to 0.5 uM after 24 hrs by O-phthalaldehyde/N-acetyl-L-cysteine derivatization technique-based HPLC analysis. It is filed as functional, cell-based.
Experiment [2] concerns PC-12. The experiment is described as follows: Effect on L-aspartate biosynthesis in rat PC12 cells assessed as effect on total L-aspartate content up to 0.5 uM after 24 hrs by O-phthalaldehyde/N-acetyl-L-cysteine derivatization technique-based HPLC analysis. It counts as functional, cell-based.
For another experiment, the system named is HEK293. Kind of experiment: Increase in intracellular D-aspartate content in HEK293 cells at 5 ug after 24 hrs by O-phthalaldehyde/N-acetyl-L-cysteine derivatization technique-based HPLC analysis relative to total aspartate (reference value: 7.38 +/- 1.9%). It counts as functional, Homo sapiens.
Experiment [3] concerns PC-12. Kind of experiment: Inhibition of D-aspartate biosynthesis in rat PC12 cells assessed as reduction of intracellular D-aspartate content up to 0.5 uM after 24 hrs by O-phthalaldehyde/N-acetyl-L-cysteine derivatization technique-based HPLC analysis. It is filed as functional, cell-based.
Experiment [4] deals with PC-12. The experiment is described as follows: Effect on L-aspartate biosynthesis in rat PC12 cells assessed as effect on intracellular L-aspartate content up to 0.5 uM after 24 hrs by O-phthalaldehyde/N-acetyl-L-cysteine derivatization technique-based HPLC analysis. It is filed as functional, cell-based.
The test system of experiment [5] is PC-12. Kind of experiment: Effect on L-aspartate biosynthesis in rat PC12 cells assessed as effect on total L-aspartate level up to 0.2 uM after 24 hrs by O-phthalaldehyde/N-acetyl-L-cysteine derivatization technique-based HPLC analysis. It is filed as functional, cell-based.
The subject of experiment [6] is PC-12. The experiment is described as follows: Inhibition of D-aspartate biosynthesis in rat PC12 cells assessed as reduction of total D-aspartate content at 0.2 uM measured at 16 hrs by O-phthalaldehyde/N-acetyl-L-cysteine derivatization technique-based HPLC analysis relative to vehicle-treated control. It is filed as functional, cell-based.
Experiment [7] concerns PC-12. Kind of experiment: Effect on L-aspartate biosynthesis in rat PC12 cells assessed as effect on intracellular L-aspartate level up to 0.2 uM after 24 hrs by O-phthalaldehyde/N-acetyl-L-cysteine derivatization technique-based HPLC analysis. It is filed as functional, cell-based.
Experiment [8] has as its system PC-12. The experiment is described as follows: Inhibition of D-aspartate biosynthesis in rat PC12 cells assessed as reduction of D-aspartate content in cell culture medium at 0.2 uM measured at 6 to 12 hrs by O-phthalaldehyde/N-acetyl-L-cysteine derivatization technique-based HPLC analysis relative to vehicle-treated control. It is filed as functional.
In experiment [9] the test system is PC-12. Kind of experiment: Inhibition of D-aspartate biosynthesis in rat PC12 cells assessed as reduction of total D-aspartate content at 0.2 uM measured at 1 to 6 hrs by O-phthalaldehyde/N-acetyl-L-cysteine derivatization technique-based HPLC analysis relative to vehicle-treated control. It is filed as functional, cell-based.
The test system of experiment [10] is PC-12. Kind of experiment: Effect on L-aspartate biosynthesis in rat PC12 cells assessed as effect on L-aspartate level in cell culture medium up to 0.2 uM after 24 hrs by O-phthalaldehyde/N-acetyl-L-cysteine derivatization technique-based HPLC analysis. It counts as functional.
Experiment [11] deals with PC-12. The experiment is described as follows: Inhibition of D-aspartate biosynthesis in rat PC12 cells assessed as reduction of D-aspartate level in cell culture medium after 24 hrs by O-phthalaldehyde/N-acetyl-L-cysteine derivatization technique-based HPLC analysis. It counts as functional.
Experiment [12] deals with PC-12. The experiment is described as follows: Inhibition of D-aspartate biosynthesis in rat PC12 cells assessed as effect on intracellular D-aspartate content at 0.2 uM incubated up to 16 hrs by O-phthalaldehyde/N-acetyl-L-cysteine derivatization technique-based HPLC analysis relative to vehicle-treated control. It is filed as functional, cell-based.
Experiment [13] has as its system PC-12. The experiment is described as follows: Inhibition of D-aspartate biosynthesis in rat PC12 cells assessed as reduction of intracellular D-aspartate level after 24 hrs by O-phthalaldehyde/N-acetyl-L-cysteine derivatization technique-based HPLC analysis. It counts as functional, cell-based.
Experiment [14] has as its system PC-12. The experiment is described as follows: Effect on L-aspartate biosynthesis in rat PC12 cells assessed as effect on total L-aspartate level up to 10 uM after 24 hrs by O-phthalaldehyde/N-acetyl-L-cysteine derivatization technique-based HPLC analysis. It counts as functional, cell-based.
The subject of experiment [15] is PC-12. Kind of experiment: Inhibition of D-aspartate biosynthesis in rat PC12 cells assessed as reduction of intracellular D-aspartate level up to 10 uM after 24 hrs by O-phthalaldehyde/N-acetyl-L-cysteine derivatization technique-based HPLC analysis. It counts as functional, cell-based.
Experiment [16] has as its system PC-12. Kind of experiment: Inhibition of D-aspartate biosynthesis in rat PC12 cells assessed as reduction of total D-aspartate content at 10 uM measured at 1 to 3 hrs by O-phthalaldehyde/N-acetyl-L-cysteine derivatization technique-based HPLC analysis relative to vehicle-treated control. It counts as functional, cell-based.
Experiment [17] relates to PC-12. Kind of experiment: Inhibition of D-aspartate biosynthesis in rat PC12 cells assessed as reduction of total D-aspartate level after 24 hrs by O-phthalaldehyde/N-acetyl-L-cysteine derivatization technique-based HPLC analysis. It counts as functional, cell-based.
The subject of experiment [18] is PC-12. Kind of experiment: Inhibition of D-aspartate biosynthesis in rat PC12 cells assessed as reduction of intracellular D-aspartate content at 10 uM measured at 1 hr by O-phthalaldehyde/N-acetyl-L-cysteine derivatization technique-based HPLC analysis relative to vehicle-treated control. It is filed as functional, cell-based.
In experiment [19] the test system is PC-12. The experiment is described as follows: Effect on L-aspartate biosynthesis in rat PC12 cells assessed as effect on L-aspartate level in cell culture medium up to 10 uM after 24 hrs by O-phthalaldehyde/N-acetyl-L-cysteine derivatization technique-based HPLC analysis. It is filed as functional.
In experiment [20] the test system is PC-12. The experiment is described as follows: Inhibition of D-aspartate biosynthesis in rat PC12 cells assessed as reduction of total D-aspartate content at 10 uM measured at 6 to 16 hrs by O-phthalaldehyde/N-acetyl-L-cysteine derivatization technique-based HPLC analysis relative to vehicle-treated control. It counts as functional, cell-based.
The subject of experiment [21] is PC-12. The experiment is described as follows: Inhibition of D-aspartate biosynthesis in rat PC12 cells assessed as reduction of intracellular D-aspartate content at 10 uM measured at 3 to 16 hrs by O-phthalaldehyde/N-acetyl-L-cysteine derivatization technique-based HPLC analysis relative to vehicle-treated control. It counts as functional, cell-based.
Experiment [22] relates to PC-12. The experiment is described as follows: Effect on L-aspartate biosynthesis in rat PC12 cells assessed as effect on intracellular L-aspartate level up to 10 uM after 24 hrs by O-phthalaldehyde/N-acetyl-L-cysteine derivatization technique-based HPLC analysis. It is filed as functional, cell-based.
The subject of experiment [23] is PC-12. Kind of experiment: Inhibition of D-aspartate biosynthesis in rat PC12 cells assessed as reduction of D-aspartate level in cell culture medium up to 10 uM after 24 hrs by O-phthalaldehyde/N-acetyl-L-cysteine derivatization technique-based HPLC analysis. It counts as functional.

Activity calls are given as the source filed them. The calls are words filed in the database; no cut-off is given here.

With `CC(C)[C@H]1CC[C@@]2(CO2)[C@H]2C(=O)OCC(C(=O)O)=C[C@H]12`, the inhibition entry in the experiment with PC-12 [1] and in the experiment with PC-12 [3] was “inactive” each time. The result in the experiment with PC-12 [2] and in the experiment with PC-12 [4] was inactive. In the experiment on HEK293, this compound showed an Activity of 0.291%.

`CO[C@@H](C(=O)[C@H](O)[C@@H](C)O)[C@H]1Cc2cc3cc(O[C@H]4C[C@@H](O[C@@H]5C[C@H](O)[C@@H](O)[C@H](C)O5)[C@H](O)[C@@H](C)O4)c(C)c(O)c3c(O)c2C(=O)[C@@H]1O[C@H]1C[C@@H](O[C@@H]2C[C@H](O[C@H]3C[C@](C)(O)[C@H](O)[C@@H](C)O3)[C@@H](O)[C@H](C)O2)[C@H](O)[C@@H](C)O1`: the outcome with PC-12 [5], in the experiment on PC-12 [7] and with PC-12 [10] was inactive. The same compound yielded an Activity with HEK293 of 9.33%. Also, the inhibition entry with PC-12 [6] and in the experiment with PC-12 [8] was “Active” in each case. Besides, the inhibition result with PC-12 [9] and in the experiment with PC-12 [12] was “inactive” each time. Also, the inhibition result with PC-12 [11] and in the experiment with PC-12 [13] was “Dose-dependent effect” each time.

In the case of `COC1=C2C[C@@H](C)C[C@H](OC)[C@H](O)[C@@H](C)/C=C(\C)[C@H](OC(N)=O)[C@@H](OC)/C=C\C=C(/C)C(=O)NC(=CC1=O)C2=O` [GELDANAMYCIN], the outcome in the experiment on PC-12 [14], with PC-12 [19] and with PC-12 [22] was inactive. Besides, the inhibition entry in the experiment with PC-12 [15], with PC-12 [20], in the experiment on PC-12 [21] and in the experiment on PC-12 [23] was “Active” in each case. Moreover, the inhibition entry in the experiment with PC-12 [16] and in the experiment with PC-12 [18] was “inactive” each time. In the experiment on PC-12 [17], the inhibition result is “Dose-dependent effect”. Moreover, the Activity with HEK293 amounted to 15.8%.
